Source: ChEMBL document CHEMBL3886713, “Aromatic heterocyclic derivative having TRPV4-inhibiting activity” (2016)

molecular target: Transient receptor potential cation channel subfamily V member 4 (Homo sapiens, UniProt Q9HBA0); assay: Inhibition Assay: Test Example 1: (1) The TRPV4 inhibitory activity was measured using CHO-K1 cells stably expressing human TRPV4 (hTRPV4/CHO cells). (2) In the day before the experimental day, frozen cell were thawed and washed with the culture medium (MEM-α, 10% FBS, 2 mmol/L GlutaMax, 50 unit Penicillin, 50 μg/mL Streptomycin). Then cells were suspended in the culture medium. (3) The 384-well plates which hTRPV4/CHO cells were seeded at densities of 4000 cells/well in the culture medium and cultured in a CO2 incubator in the presence of 5% CO2 at 37° C. for overnight was used as assay plates. (4) The assay plate was washed with assay buffer (Hanks, 20 mmol/L HEPES, 2.5 mmol/L probenecid, pH7.4), and the buffer were remained at 20 μL/well. (5) 10 μl of dye loading buffer (9 μmol/L Fluo 4-AM, 0.09% Pluronic F-127/assay buffer) was added to each well, then the assay plate was incubated in a CO2 incubator in the presence of 5% CO2 at 37° C. for one hour. (final 3 μmol/L Fluo4-AM). (6) The assay plate was washed with the assay buffer, and the buffers were remained at 20 μL/well. Then the assay plate was incubated for 10 min at room temperature. (7) Diluted compound solution was dispensed to each well in the compound plate, and mixed with built-in Pipette and Mixer of the Fluorescence analysis system FLIPR TETRA (Molecular devices). (8) After incubation for 5 min, 20 μL of 4α-PDD solution were applied to each well of assay plate and mixed with the FLIPR TETRA. (final 1 Î¼mol/L 4α-PDD). (9) The fluorescent intensity was measured with FLIPR TETRA system for 10 min from the point of time addition the compound solution, at Ex 470-495 nm, Em 515-575 nm wavelength.; format: cell-based
Sequence (Q9HBA0 whole entry): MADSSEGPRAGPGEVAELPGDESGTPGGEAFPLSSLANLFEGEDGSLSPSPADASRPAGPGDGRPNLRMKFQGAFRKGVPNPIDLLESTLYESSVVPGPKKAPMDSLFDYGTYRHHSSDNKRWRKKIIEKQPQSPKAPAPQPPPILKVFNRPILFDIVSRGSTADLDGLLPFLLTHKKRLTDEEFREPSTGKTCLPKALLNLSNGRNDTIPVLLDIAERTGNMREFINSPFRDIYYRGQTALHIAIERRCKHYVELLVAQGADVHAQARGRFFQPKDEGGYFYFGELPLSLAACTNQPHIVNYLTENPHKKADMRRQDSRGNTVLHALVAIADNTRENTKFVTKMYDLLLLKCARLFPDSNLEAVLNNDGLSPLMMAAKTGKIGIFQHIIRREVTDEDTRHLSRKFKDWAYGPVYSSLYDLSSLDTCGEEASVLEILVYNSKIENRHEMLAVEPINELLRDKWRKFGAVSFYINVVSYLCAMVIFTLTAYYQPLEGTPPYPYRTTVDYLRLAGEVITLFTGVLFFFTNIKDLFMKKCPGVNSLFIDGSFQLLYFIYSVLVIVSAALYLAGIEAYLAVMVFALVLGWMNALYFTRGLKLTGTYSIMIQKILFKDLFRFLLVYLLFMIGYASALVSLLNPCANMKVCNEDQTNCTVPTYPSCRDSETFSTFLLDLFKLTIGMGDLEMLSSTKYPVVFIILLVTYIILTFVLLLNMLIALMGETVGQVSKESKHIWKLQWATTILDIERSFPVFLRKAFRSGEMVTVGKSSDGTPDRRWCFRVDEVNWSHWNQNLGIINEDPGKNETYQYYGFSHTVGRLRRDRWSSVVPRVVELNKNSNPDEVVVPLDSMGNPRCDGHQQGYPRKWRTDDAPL

Row | IC50 [nM] | Ki [nM] | SMILES
1 | 8900 | 3100 | Cc1c(S(=O)(=O)NCc2cccc(C(F)(F)F)c2)cc(C(C)(C)C)n1CCCN1CCNCC1
2 | 7000 | 2400 | CNCCCn1c(C(C)(C)C)cc(S(=O)(=O)NCc2cccc(C(F)(F)F)c2)c1C

Row | SMILES | IC50 [nM] | Ki [nM]
3 | Cc1c(C(=O)Nc2cccc(C(F)(F)F)c2)nc(-c2ccccc2)n1CCCN1CCOCC1 | 710 | 320
